Experimental data reported in article PMC3933419, “Synthesis and Properties of a Selective Inhibitor of Homeodomain–Interacting Protein Kinase 2 (HIPK2)” (PLoS ONE, 2014).
Where two headings read alike, the source gives them in different places.

Columns and labels:
[1] = target: T1, HIPK2 (Homo sapiens, UniProt Q9H2X6); assay: HIPK2 kinase inhibition assay (33P-ATP, peptide […]); type: biochemical
T1 construct: The source of HIPK2 and of all of the other protein kinases used for specificity assays is as described elsewhere
T1 sequence (Q9H2X6 whole entry): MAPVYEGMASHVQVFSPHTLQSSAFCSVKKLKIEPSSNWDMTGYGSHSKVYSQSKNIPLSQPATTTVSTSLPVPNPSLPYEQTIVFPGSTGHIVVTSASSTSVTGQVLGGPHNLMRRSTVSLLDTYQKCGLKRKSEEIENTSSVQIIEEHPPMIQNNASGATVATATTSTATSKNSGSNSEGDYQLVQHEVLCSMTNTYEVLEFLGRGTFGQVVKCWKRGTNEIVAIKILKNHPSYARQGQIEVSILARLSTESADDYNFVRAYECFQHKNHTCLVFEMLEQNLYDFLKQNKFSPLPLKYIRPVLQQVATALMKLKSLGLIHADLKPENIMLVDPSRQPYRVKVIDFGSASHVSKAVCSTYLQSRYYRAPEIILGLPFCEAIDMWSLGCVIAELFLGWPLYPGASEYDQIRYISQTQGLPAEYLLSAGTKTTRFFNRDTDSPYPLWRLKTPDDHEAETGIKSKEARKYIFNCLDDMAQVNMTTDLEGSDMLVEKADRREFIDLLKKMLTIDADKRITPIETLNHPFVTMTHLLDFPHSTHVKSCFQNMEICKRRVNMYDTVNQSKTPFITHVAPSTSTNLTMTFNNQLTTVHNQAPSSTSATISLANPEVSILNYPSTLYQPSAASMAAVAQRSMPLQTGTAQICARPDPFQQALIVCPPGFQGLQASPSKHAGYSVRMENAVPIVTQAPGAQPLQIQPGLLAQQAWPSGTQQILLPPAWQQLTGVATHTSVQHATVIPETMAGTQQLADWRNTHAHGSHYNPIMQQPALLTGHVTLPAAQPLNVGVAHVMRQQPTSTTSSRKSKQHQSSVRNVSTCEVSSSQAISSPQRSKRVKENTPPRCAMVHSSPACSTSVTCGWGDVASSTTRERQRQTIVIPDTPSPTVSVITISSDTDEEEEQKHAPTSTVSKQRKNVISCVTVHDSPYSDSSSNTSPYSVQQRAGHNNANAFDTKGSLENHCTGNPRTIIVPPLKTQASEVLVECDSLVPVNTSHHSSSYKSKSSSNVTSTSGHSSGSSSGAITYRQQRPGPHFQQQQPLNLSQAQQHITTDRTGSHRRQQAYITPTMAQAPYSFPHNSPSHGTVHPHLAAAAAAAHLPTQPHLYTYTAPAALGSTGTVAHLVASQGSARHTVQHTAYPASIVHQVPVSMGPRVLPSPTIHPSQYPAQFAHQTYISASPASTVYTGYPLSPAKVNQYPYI
Procedure: The source of HIPK2 and of all of the other protein kinases used for specificity assays is as described elsewhere. […] The reaction was stopped by addition of 5 μl of 0.5 M orthophosphoric acid before spotting aliquots onto phosphocellulose filters. Filters were washed in 75 mM phosphoric acid (5-10 ml/each) four times and then once in methanol and dried before counting.

[2] = target: T2, CK2 (Rattus norvegicus, UniProt P19139); assay: CK2 phosphorylation assay; type: biochemical; details: 20 µM ATP
T2 construct: Native CK2 and CK1 were purified from rat liver; from tissue; host or cells: rat liver
T2 sequence (P19139 whole entry): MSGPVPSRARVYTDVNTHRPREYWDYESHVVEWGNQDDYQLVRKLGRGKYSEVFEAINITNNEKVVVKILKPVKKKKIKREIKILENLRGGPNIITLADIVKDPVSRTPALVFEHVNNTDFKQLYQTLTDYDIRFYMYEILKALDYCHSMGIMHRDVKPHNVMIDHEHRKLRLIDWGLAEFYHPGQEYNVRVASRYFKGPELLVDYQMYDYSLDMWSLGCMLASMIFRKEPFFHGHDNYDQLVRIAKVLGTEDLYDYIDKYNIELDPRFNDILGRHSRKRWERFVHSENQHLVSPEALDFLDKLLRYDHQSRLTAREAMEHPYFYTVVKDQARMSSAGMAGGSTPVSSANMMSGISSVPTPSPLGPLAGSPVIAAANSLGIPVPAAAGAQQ
T2 sequence (P67874 whole entry partner): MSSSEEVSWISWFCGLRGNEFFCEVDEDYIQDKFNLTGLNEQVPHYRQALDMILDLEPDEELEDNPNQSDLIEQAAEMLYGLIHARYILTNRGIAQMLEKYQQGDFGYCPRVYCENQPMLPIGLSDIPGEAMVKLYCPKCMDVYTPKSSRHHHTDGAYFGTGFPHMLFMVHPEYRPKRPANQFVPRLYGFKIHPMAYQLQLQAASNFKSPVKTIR
Procedure: (§1) Native CK2 and CK1 were purified from rat liver.
(§2) PIM1, CK2, CK1 phosphorylation assays were performed following similar procedures used for HIPK2 except that preincubation was omitted. In detail, PIM1 activity was determined at 100 µM ATP concentration and in the presence of 30 µM synthetic peptide substrate […]. CK2 and CK1 activities were assayed in a buffer containing 50 mM Tris/HCl (pH 7.5), 100 mM NaCl, 12 mM MgCl2, 100 µM specific peptide substrate […] (for CK2), or 200 µM […] (for CK1) and 20 µM [γ-^33P]ATP (500–1000 c.p.m./pmol).

[3] = target: T3, PIM1 (Homo sapiens, UniProt P11309); assay: PIM1 phosphorylation assay; type: biochemical; details: 100 µM ATP
T3 construct: The source of HIPK2 and of all of the other protein kinases used for specificity assays is as described elsewhere
T3 sequence (P11309 whole entry, species assumed): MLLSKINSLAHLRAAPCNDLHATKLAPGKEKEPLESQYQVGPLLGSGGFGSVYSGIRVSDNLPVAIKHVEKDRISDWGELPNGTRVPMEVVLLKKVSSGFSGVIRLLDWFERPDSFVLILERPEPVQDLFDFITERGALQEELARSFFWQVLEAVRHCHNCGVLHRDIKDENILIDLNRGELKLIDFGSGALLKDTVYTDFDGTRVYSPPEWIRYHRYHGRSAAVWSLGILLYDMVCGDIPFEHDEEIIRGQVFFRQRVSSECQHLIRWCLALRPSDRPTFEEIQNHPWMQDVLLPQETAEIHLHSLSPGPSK
Procedure: as §2

[4] = tested on: CK1; assay: CK1 phosphorylation assay; type: biochemical, rat; details: 20 µM ATP
Procedure: as §1, §2

[5] = target: T4, endogenous HIPK2 (Homo sapiens, UniProt Q9H2X6); assay: Activity of HIPK2 immunoprecipitated from treated HepG2 cells; type: cell-based; details: HepG2 cells, increasing concentrations; immunoprecipitated HIPK2
T4 construct: endogenous in cells; host or cells: HepG2
T4 sequence (Q9H2X6 whole entry): as the sequence (Q9H2X6 whole entry) above
Procedure: HepG2 cells (human hepatocellular carcinoma) were cultured in Dulbecco's modified Eagle's medium (DMEM; Sigma) supplemented with 10% fetal calf serum, 2 mM L-glutamine, 100 unit/ml penicillin and 100 µg/ml streptomycin; CEM cells (human T lymphoblastoid cells) were cultured n RPMI-1640 (Sigma) with the same supplements. Cells were cultured in an atmosphere containing 5% CO2, at 37°C. Treatments with TBID were performed in the same medium but with 1% fetal calf serum; control cells were treated with the solvent (DMSO). Total cell lysates were prepared as in [29].
Alternatively, HIPK2 was immunoprecipitated with 2.5 µl anti-HIPK2 (Epitomics) from 350 µg of total lysate proteins deriving from HepG2 cells either treated or not with TBID following a protocol elsewhere described. An aspecific antibody was used as negative control. Immunoprecipitated HIPK2 activity was measured towards the specific peptide substrate ([…]) at 1.6 mM concentration, for 10 min at 30°C, under the same conditions described above for the in vitro kinase assay. Peptide radioactivity was measured after sample spotting on phospho-cellulose paper, washing and scintillation counting, as in [30], while the amount of HIPK2 immunoprecipitated was evaluated by WB.

[6] = target: T1, HIPK2; parameters: method as in PMID 17850214; details: 1 µM concentration; panel of 71 protein kinases; ref [9]; cited from earlier work
[7] = tested on: panel of 71 protein kinases; details: 1 µM concentration, ref [9]; cited from earlier work
[8] = target: T1, HIPK2; parameters: method as in PMID 18588507; details: TBB and TBI values; ref [19]; cited from earlier work
[9] = target: T3, PIM1; parameters: method as in PMID 18588507; details: TBB and TBI values; ref [19]; cited from earlier work
[10] = tested on: CK1; parameters: method as in PMID 18588507; details: TBB and TBI values; ref [19]; cited from earlier work
[11] = tested on: 70 PKs; assay: Selectivity parameters (Lorenz curve, Gini coefficient, hit rate) of TBI; type: biochemical; details: 10 µM, from data published in ref [19]
Procedure: Lorenz curves were derived from the selectivity data. Gini coefficients and hit rates (expressing the percent of kinases inhibited >50% by a given compound) were calculated as described in [25].

[12] = target: T2, CK2; parameters: method as in PMID 18588507; details: read-out: IC50 for CK2; TBB and TBI values; ref [19]; cited from earlier work
[13] = tested on: 70 PKs; parameters: method as in PMID 21513497; details: 10 µM TBI; ref [20]; cited from earlier work

Row | Compound | IC50 ([1]; 20 µM ATP, in vitro) [µM] | IC50 [2] [µM] | IC50 [3] [µM] | IC50 [4] [µM] | melting point | other results
1 | O=C1c2c(Br)c(Br)c(Br)c(Br)c2C(=O)N1c1nccs1 [5b, 4,5,6,7-Tetrabromo-2-(thiazol-2-yl)isoindoline-1,3-dione] | 0.72 | 16 | 40 | 9.3 | 228 to 232 °C | –
2 | O=C1c2c(Br)c(Br)c(Br)c(Br)c2C(=O)N1c1nncs1 [5c, 4,5,6,7-Tetrabromo-2-(1,3,4-thiadiazol-2-yl)isoindoline-1,3-dione] | 2.6 | 24 | > 40 | > 40 | 310 to 311 °C | –
3 | O=C1c2c(Br)c(Br)c(Br)c(Br)c2C(=O)N1c1ncns1 [5d, 4,5,6,7-Tetrabromo-2-(1,2,4-thiadiazol-5-yl)isoindoline-1,3-dione] | 2.5 | 35 | > 40 | > 40 | 325 to 326 °C | –
4 | O=C1c2c(Br)c(Br)c(Br)c(Br)c2C(=O)N1c1ccn[nH]1 [5e, 4,5,6,7-Tetrabromo-2-(1H-pyrazol-5-yl)isoindoline-1,3-dione] | > 40 | 23 | > 40 | > 40 | 333 to 334 °C (dec.) | endogenous HIPK2 activity upon cell treatment [5]: not
5 | Cc1cc(N2C(=O)c3c(Br)c(Br)c(Br)c(Br)c3C2=O)[nH]n1 [5f, 4,5,6,7-Tetrabromo-2-(3-methyl-1H-pyrazol-5-yl)isoindoline-1,3-dione] | > 40 | > 40 | > 40 | > 40 | 331 to 332 °C | –
6 | O=C1c2c(Br)c(Br)c(Br)c(Br)c2C(=O)N1c1ncn[nH]1 [5g, 4,5,6,7-Tetrabromo-2-(1H-1,2,4-triazol-5-yl)isoindoline-1,3-dione] | 22.7 | 25 | > 40 | > 40 | > 360 °C | –
7 | O=C1c2c(Br)c(Br)c(Br)c(Br)c2C(=O)N1c1ccon1 [5h, 4,5,6,7-Tetrabromo-2-(isoxazol-3-yl)isoindoline-1,3-dione] | 23.6 | > 40 | > 40 | > 40 | 290 to 293 °C | –
8 | O=C1c2c(Br)c(Br)c(Br)c(Br)c2C(=O)N1c1cnccn1 [5i, 4,5,6,7-Tetrabromo-2-(pyrazin-2-yl)isoindoline-1,3-dione] | 3.62 | > 40 | > 40 | > 40 | 272 to 275 °C | –
9 | C[S+]([O-])c1ccc(-c2nc(-c3ccncc3)c(-c3ccc(F)cc3)[nH]2)cc1 (stereo not drawn) [SB203580] | – | – | – | – | – | effect on HIPK2 activity ([1]; up to 40 µM concentration): not appreciably affecting; inhibition of HIPK2 [6]: 14%; number of protein kinases inhibited >60% [7]: 6
10 | Brc1c(Br)c(Br)c2[nH]nnc2c1Br [TBB, 4,5,6,7-tetrabromobenzotriazole] | – | – | – | – | – | IC50 [8]: 5.3 µM; IC50 [9]: 1.04 µM; IC50 [10]: > 40 µM
11 | Brc1c(Br)c(Br)c2[nH]cnc2c1Br [TBI] | – | – | – | – | – | IC50 ([1]; TBI value given in the text): 1 µM; Gini coefficient [11]: 0.310; IC50 [8]: 0.7 µM; IC50 [12]: 0.6 µM; IC50 [9]: 0.115 µM; IC50 [10]: 15 µM; number of kinases inhibited >90% [13]: 10
